Our source for the EC50 and Ki values is patent publication US11964990B2, “1,3,4,7-tetrahydro-2H-pyrrolo[3′,2′:5,6]pyrido[2,3-b][1,4]oxazepine bcl-2 inhibitors” (AbbVie Inc., priority 2022, dated 2024).

The test system of one assay is RS4;11 cells. As to the kind of experiment: Cell viability assay (CellTiter-Glo) in RS4;11 cell line. The conditions noted are these: 24 hours, 10% Human Serum, 50% decrease in cell viability. The format is cell-based. Summed up:
(§1)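 RS4;11 or Molt-4 cells (3000 per well) in RPMI 1640 with 10% human serum treated with compound for 24 h, 5% CO2. Viability measured by CellTiter-Glo as percent of control; EC50 from sigmoidal dose-response curves.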
In general terms: ATP-based viability assays read luminescence as a measure of living cells.

The target of the next assay is Bcl-xL protein (Homo sapiens (Human), UniProt Q07817). The experiment in a line: TR-FRET binding assay, Bcl-xL (F-Bak peptide probe). The conditions noted are these: Bak BH3 peptide probe, Wang's equation. Here is the method: (§2) Determination of the utility of compounds having Formula (I) or Formula (II) as binders to and inhibitors of anti-apoptotic Bcl-2 proteins was performed using the Time Resolved-Fluorescence Resonance Energy Transfer (TR-FRET) Assay. Tb-anti-GST antibody was purchased from Invitrogen (Catalog No. PV4216).
Bcl-xL protein, sequence (Q07817 other isoform, or with tags, fused parts or gaps): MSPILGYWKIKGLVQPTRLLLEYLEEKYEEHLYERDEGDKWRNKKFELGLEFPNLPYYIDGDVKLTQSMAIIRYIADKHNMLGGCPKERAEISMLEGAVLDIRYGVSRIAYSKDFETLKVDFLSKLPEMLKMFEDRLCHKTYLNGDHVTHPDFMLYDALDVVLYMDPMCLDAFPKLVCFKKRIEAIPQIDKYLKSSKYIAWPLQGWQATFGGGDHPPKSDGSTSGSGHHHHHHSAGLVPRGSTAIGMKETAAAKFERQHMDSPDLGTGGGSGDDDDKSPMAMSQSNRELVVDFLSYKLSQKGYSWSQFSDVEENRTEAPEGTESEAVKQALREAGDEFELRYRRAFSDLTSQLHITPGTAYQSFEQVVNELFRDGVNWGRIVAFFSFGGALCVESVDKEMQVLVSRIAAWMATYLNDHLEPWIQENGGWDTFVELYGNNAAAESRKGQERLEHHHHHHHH
A human Bcl-xL encoding sequence was cloned into a pET41A vector. The protein was expressed with E. coli. BL21(DE3)-T1R strain in OETB autoinduction medium at 30° C. for 25 hours. The cell pellets were resuspended in lysis buffer (50 mM Tris, 140 mM NaCl, 1 mM DTT, 10% Glycerol, 0.1% Triton X-100, pH 7.5) and lysed with Microfluidizer. The Bcl-xL protein in clarified cell-lysate was purified with GST affinity chromatography. The eluate was dialyzed in the storage buffer (1×PBS, 10% Glycerol, 2 mM DTT, 1 mM Sodium Azide, pH 7.4) and stored at −80° C.
(§3) […] of a protein (Bcl-2 or Bcl-xL)/probe/antibody mixture pre-equilibrated for one hour in assay buffer was added to each well at final concentrations listed in Table 6 below.
(§4) The samples were then mixed on a shaker for 1 minute and equilibrated for an additional 3 hours at room temperature. For each assay plate, a probe/antibody and protein/antibody/probe mixture were included as a negative and a positive control, respectively. Fluorescence was measured on the Envision (Perkin Elmer) using a 340/35 nm excitation filter and 520/525 (F-Bak) and 495/510 nm (Tb-labeled anti-GST antibody) emission filters. Inhibition constants (Ki) were determined using Wang's equation (Wang FEBS Lett. 1995, 360, 111-114). The TR-FRET assay can be performed in the presence of varying concentrations of human serum (HS) to determine apparent half maximal inhibitory concentration (IC50) after HS protein binding.
(§5) Inhibition constants were determined using Wang's equation (Wang FEBS Lett. 1995, 360:111-4).
For orientation: Time-resolved FRET reads energy transfer from a long-lived donor to a nearby acceptor.

The next assay deals with Bcl-2 protein (Homo sapiens (Human), UniProt P10415). As to the kind of experiment: TR-FRET binding assay, Bcl-2 (F-Bak peptide probe). The following applies: Bak BH3 peptide probe, Wang's equation. On the procedure: as §2
Bcl-2 protein, sequence (P10415 other isoform, or with tags, fused parts or gaps): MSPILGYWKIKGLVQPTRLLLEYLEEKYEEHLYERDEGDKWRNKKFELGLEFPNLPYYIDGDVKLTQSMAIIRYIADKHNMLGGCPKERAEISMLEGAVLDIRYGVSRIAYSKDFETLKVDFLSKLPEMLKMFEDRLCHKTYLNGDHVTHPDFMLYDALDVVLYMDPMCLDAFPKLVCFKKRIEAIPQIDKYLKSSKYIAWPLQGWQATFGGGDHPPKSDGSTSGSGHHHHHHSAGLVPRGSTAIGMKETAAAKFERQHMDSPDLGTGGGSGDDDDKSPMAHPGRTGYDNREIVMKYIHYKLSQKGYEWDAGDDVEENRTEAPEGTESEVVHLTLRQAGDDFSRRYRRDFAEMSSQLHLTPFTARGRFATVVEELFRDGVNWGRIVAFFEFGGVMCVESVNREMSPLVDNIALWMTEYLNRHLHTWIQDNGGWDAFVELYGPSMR
A Bcl-2 human encoding sequence was cloned into a pET41A vector (Novagen). The protein was expressed with E. coli. BL21(DE3)-T1R strain in OETB autoinduction medium at 30° C. for 25 hours. The cell pellets were resuspended in lysis buffer (50 mM Tris, 140 mM NaCl, 1 mM DTT, 10% Glycerol, 2 mM MgCl2, pH 7.3) and lysed with Microfluidizer. The Bcl-2 protein in clarified cell-lysate was purified with affinity chromatography (GST and Ni-NTA). The eluate was loaded onto a Superdex 75 column and further purified with a Q Sepharose column. The protein was purified on a phenyl hydrophobic interaction column and dialyzed in the storage buffer (50 mM Tris, 50 mM NaCl, 2 mM DTT, pH 7.5) and stored at −80° C.
as §3, §4, §5

In a further assay the test system is Molt-4 cells. The experiment in a line: Cell viability counter screen assay (CellTiter-Glo) in Molt-4 cells. The assay is classed as cell-based. The conditions noted are these: 24 hours, 10% Human Serum, 50% decrease in cell viability. Summed up: as §1
For orientation: A counterscreen serves to expose hits that act by an unwanted route or on another target.

pEC50, pKi: −log10 of the molar value. A value given as a limit tells only on which side of the number the result lay.

As a reminder, the pEC50 is −log10 of the EC50, conventionally taken in molar units. Usually pKi stands for the Ki on a negative log10 scale, so that one unit is a factor of ten. Higher therefore signals a small Ki. Turning to `CO[C@@H]1CC[C@@H](COc2ccc(S(=O)(=O)NC(=O)c3ccc(N4CCN5CC6=C(c7ccc(Cl)cc7)CC(C)(C)C[C@H]6OCCCOC[C@@H]5C4)cc3N3CCCOc4nc5[nH]ccc5cc43)cc2[N+](=O)[O-])OC1` [Example 51], the figures for the negative logarithm of the EC50 (pEC50) with RS4;11 cells and with Molt-4 cells were 8.02 and less than 5.00, respectively. In addition, the negative-log Ki (pKi) is 7.72 on Bcl-xL protein and 10.00 at Bcl-2 protein.
For the compound `CC1(C)CC(c2ccc(Cl)cc2)=C2CN3CCN(c4ccc(C(=O)NS(=O)(=O)c5ccc(NCC6CCCCO6)c([N+](=O)[O-])c5)c(N5CCCOc6nc7[nH]ccc7cc65)c4)C[C@H]3COCCCO[C@@H]2C1` (stereo partly drawn) [Example 45, 4-((4aS,10aR)-14-(4-chlorophenyl)-12,12-dimethyl-1,2,4a,5,8,9,10a,11,13,15-decahydro-7H,12H-benzo[f]pyrazino[2,1-c][1,8]dioxa[4]azacycloundecin-3(4H)-yl)-2-(3,4-dihydro-2H-pyrrolo[3′,2′:5,6]pyrido[2,3-b][1,4]oxazepin-1(7H)-yl)-N-((3-nitro-4-(((tetrahydro-2H-pyran-2-yl)methyl)amino)phenyl)sulfonyl)benzamide], the negative-log EC50 (pEC50) was 7.97 in the assay on RS4;11 cells and less than 5.00 with Molt-4 cells. Besides, the pKi at Bcl-xL protein was 7.56; on Bcl-2 protein it was 9.62.
With `CC1(C)CC(c2ccc(Cl)cc2)=C2CN3CCN(c4ccc(C(=O)NS(=O)(=O)c5cnc(OC[C@H]6CC[C@@](C)(O)CC6)c(Cl)c5)c(N5CCCOc6nc7[nH]ccc7cc65)c4)C[C@H]3COCCCO[C@@H]2C1` [Example 50, N-((5-chloro-6-(((1s,4s)-4-hydroxy-4-methylcyclohexyl)methoxy)pyridin-3-yl)sulfonyl)-4-((4aS,10aR)-14-(4-chlorophenyl)-12,12-dimethyl-1,2,4a,5,8,9,10a,11,13,15-decahydro-7H,12H-benzo[f]pyrazino[2,1-c][1,8]dioxa[4]azacycloundecin-3(4H)-yl)-2-(3,4-dihydro-2H-pyrrolo[3′,2′:5,6]pyrido[2,3-b][1,4]oxazepin-1(7H)-yl)benzamide], the figures for the negative logarithm of the EC50 (pEC50) in the assay on RS4;11 cells and in the assay with Molt-4 cells were 7.38 and less than 5.00, respectively. The values for the pKi at Bcl-xL protein and at Bcl-2 protein were 7.40 and 9.63, respectively.
For `CC1(C)CC(c2ccc(Cl)cc2)=C2CN3CCN(c4ccc(C(=O)NS(=O)(=O)c5ccc(OC[C@H]6CC[C@H](N7CCOCC7)CC6)c(Cl)c5)c(N5CCCOc6nc7[nH]ccc7cc65)c4)C[C@H]3COCCCO[C@@H]2C1` [Example 38, N-((3-chloro-4-(((1r,4r)-4-morpholinocyclohexyl)methoxy)phenyl)sulfonyl)-4-((4aS,10aR)-14-(4-chlorophenyl)-12,12-dimethyl-1,2,4a,5,8,9,10a,11,13,15-decahydro-7H,12H-benzo[f]pyrazino[2,1-c][1,8]dioxa[4]azacycloundecin-3(4H)-yl)-2-(3,4-dihydro-2H-pyrrolo[3′,2′:5,6]pyrido[2,3-b][1,4]oxazepin-1(7H)-yl)benzamide], the negative logarithm of the EC50 (pEC50) in the assay on RS4;11 cells was 7.59; in the assay with Molt-4 cells it was 5.63. The pKi on Bcl-xL protein is 8.25; on Bcl-2 protein it was 9.97.
Turning to `CC1(C)CC(c2ccc(Cl)cc2)=C2CN3CCN(c4ccc(C(=O)NS(=O)(=O)c5ccc(OC[C@H]6CC[C@](C)(O)CC6)c([N+](=O)[O-])c5)c(N5CCCOc6nc7[nH]ccc7cc65)c4)C[C@H]3COCCCO[C@@H]2C1` [Example 44, 4-((4aS,10aR)-14-(4-chlorophenyl)-12,12-dimethyl-1,2,4a,5,8,9,10a,11,13,15-decahydro-7H,12H-benzo[f]pyrazino[2,1-c][1,8]dioxa[4]azacycloundecin-3(4H)-yl)-2-(3,4-dihydro-2H-pyrrolo[3′,2′:5,6]pyrido[2,3-b][1,4]oxazepin-1(7H)-yl)-N-((4-(((1r,4r)-4-hydroxy-4-methylcyclohexyl)methoxy)-3-nitrophenyl)sulfonyl)benzamide], the negative-log EC50 (pEC50) with RS4;11 cells was 8.36; in the assay with Molt-4 cells it was 5.64. Moreover, the negative logarithm of the Ki (pKi) is 8.10 at Bcl-xL protein and 10.05 at Bcl-2 protein.
Taken in the same sequence, the figures for `CC1(C)CC(c2ccc(Cl)cc2)=C2CN3CCN(c4ccc(C(=O)NS(=O)(=O)c5cnc(OC[C@H]6CC[C@](C)(O)CC6)c(Cl)c5)c(N5CCCOc6nc7[nH]ccc7cc65)c4)C[C@H]3COCCCO[C@@H]2C1` [Example 42, N-((5-chloro-6-(((1r,4r)-4-hydroxy-4-methylcyclohexyl)methoxy)pyridin-3-yl)sulfonyl)-4-((4aS,10aR)-14-(4-chlorophenyl)-12,12-dimethyl-1,2,4a,5,8,9,10a,11,13,15-decahydro-7H,12H-benzo[f]pyrazino[2,1-c][1,8]dioxa[4]azacycloundecin-3(4H)-yl)-2-(3,4-dihydro-2H-pyrrolo[3′,2′:5,6]pyrido[2,3-h][1,4]oxazepin-1(7H)-yl)benzamide] were 7.95, less than 5.00, 7.60 and 9.80.
